Measurements reported in publication PMC4442108, “Preclinical Validation of the Heparin-Reactive Peptide p5+14 as a Molecular Imaging Agent for Visceral Amyloidosis” (Molecules, 2015).
Where no end group is shown, it is not given here. [ ]: non-standard residue; d: D form. Tyr(3-I) = N[C@@H](Cc1ccc(O)c(I)c1)C(=O)O

Tests used:
[1] = system: human AL amyloid extracts; experiment: Peptide ex vivo amyloid binding assay (pull-down), AL extracts; settings: for % Bound (mean ± SD): 1 h incubation, PBST, RT, N = 2
Protocol: Human amyloid tissue extracts were prepared using the water flotation method as described by Pras et al. without modification. Purified amyloid material isolated in the water wash was collected and lyophilized before use.
(§1) Twenty-five microliters of 1 mg/mL AL extract, or synthetic rVλ6Wil variable domain fibrils were centrifuged in a 0.5 mL microfuge tube at 21,000× g for 5 min. The supernatant was discarded and pellet resuspended in 200 µL of PBS with 0.05% Tween-20 (PBST). Ten microliters of a 1:100 dilution of ^125I-p5+14 (~100,000 counts per minute (CPM); ~5 ng peptide) stock was added to the suspension. The mixture was rotated at RT for 1 h. Samples were then centrifuged twice at 15,000× g for 10 min. Supernatants and pellets were separated after each step and the radioactivity in each was measured using a Cobra II gamma counter (Perkin Elmer) with a 1 min acquisition. The percentage of ^125I-p5+14 bound to pellet was determined as follows: % Bound = Pellet CPM/(Pellet CPM + Supernatant CPM) × 100

[2] = system: synthetic rVλ6Wil fibrils; assay type: binding, human; settings: HSPG-free synthetic rVλ6Wil fibrils in suspension; PBST; 1 h RT; 125I-p5+14 ~5 ng
Protocol: as §1

AA amyloid = target: T1, AA amyloid (Mus musculus, UniProt P05367); experiment: Biodistribution, SPECT/CT and micro-autoradiography of 125I-p5+14 in mice with systemic AA amyloidosis; assay type: in vivo, mouse (H2/IL-6 transgenic)
T1 construct: organs known to develop AA amyloid in this mouse model; from tissue; host or cells: live H2/IL-6 transgenic Balb/c mice; liver, spleen, heart, kidney, pancreas
T1 sequence (P05367 20-95 limits assumed): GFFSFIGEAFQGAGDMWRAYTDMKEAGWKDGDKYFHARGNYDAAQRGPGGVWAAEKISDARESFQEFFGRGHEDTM
Protocol: Systemic visceral AA amyloidosis was induced in H2-Ld-huIL-6 Tg Balb/c transgenic mice that constitutively express the human interleukin-6 transgene by iv injection of 10 µg of purified, splenic AA amyloid (amyloid enhancing factor; AEF) in 100 µL of sterile phosphate-buffered saline (PBS). Peptide was evaluated in mice at 4–6 wk post AEF injection when amyloid load was significant.
For serial SPECT/CT imaging in cohorts (n = 3) of AA and healthy wild type (WT) mice, peptide p5+14 (100 µg) was radioiodinated with ~4 mCi of ^125I (Perkin Elmer, Waltham, MA, USA), using 20 µg chloramine T as the oxidizing agent. After quenching the reaction with 20 µg sodium metabisulfite, the radiolabeled peptide was diluted into 0.1% sterile gelatin in PBS and free radioiodide removed by size exclusion chromatography on a 5 mL PD10 (GE Healthcare) solid phase equilibrated with 0.1% gelatin/PBS. Fractions 0f 200 µL were collected and those containing the maximal radioactivity (indicative of ^125I-p5+14) were pooled, and the product’s radiochemical purity was established by SDS polyacrylamide gel electrophoresis (PAGE) analyzed by phosphor imaging (Cyclone Storage Phosphor System, Perkin Elmer, Shelton, CT, USA).
Imaging was performed as described. Briefly, WT or AA amyloid mice (n = 3) were injected with ~3 µg of ^125I-p5+14, 125 µCi (specific activity ~40 µCi/µg) in the lateral tail vein. After the appropriate uptake time (1, 4, 24, and 48 h), mice were euthanized by isoflurane inhalation overdose. […]
Samples of liver, spleen, pancreas, kidneys, small and large intestines, stomach and heart were harvested post mortem from every mouse undergoing imaging with ^125I-p5+14 [45]. A sample of each was placed into a tared, plastic vial, weighed and the ^125I radioactivity measured using an automated Wizard 3 gamma counter (1480 Wallac Gamma Counter, Perkin Elmer). The biodistribution data were expressed as % injected dose/g tissue (%ID/g). […]

[3] = system: human AL and ATTR amyloid in tissue sections; experiment: Peptide histochemistry and overlay micro-autoradiography on human tissue sections; assay type: binding; settings: ~5 ng/mL, 1 h room temperature; FFPE human AL and ATTR sections
Protocol: For autoradiography, 6- μm-thick sections were cut from formalin-fixed, paraffin-embedded blocks, containing tissues from mice that had received ^125I-p5+14. Mice were euthanized at 1 h pi of radiotracer. The sections were placed on Plus microscope slides (ThermoFisher Scientific, Waltham, MA, USA), dipped in NTB-2 emulsion (Eastman Kodak, Rochester, NY, USA), stored in the dark and developed after a 4 day exposure. Each section was counterstained with hematoxylin and eosin. […] Blinded qualitative assessment of amyloid load in Congo red-stained sections of liver and spleen was performed by an experienced amyloid researcher who ranked each tissue on a 0 to 4+ scale. All tissue sections were examined using a Leica DM500 light microscope (Leica, Wetzlar, Germany) fitted with cross-polarizing filters (for Congo red). Digital microscopic images were acquired using a cooled CCD camera (SPOT; Diagnostic Instruments, Sterling Heights, MI, USA).
Peptide p5+14 (with a cysteine residue at the N-terminal) was prepared for tissue staining by either biotinylation, according to the manufacturer’s instructions, using a maleimide-biotin conjugation kit (Pierce, Grand Island, NY, USA), or for overlay-micoautoradiography by radioiodination with ^125I, as described above. […]

[4] = system: healthy tissue homogenates; experiment: Peptide ex vivo binding assay, non-specific binding; settings: data not shown

median % bound amongst the test samples ([1]; across the human AL and ATTR amyloid extracts of Table 3): 92%
% Bound (mean ± SD) ([1]; κ1 AL08 liver extract): 96.35 ± 0.47%
% Bound (mean ± SD) ([1]; κ4 AL01 spleen extract): 97.00 ± 0.11%
% Bound (mean ± SD) ([1]; λ1 AL03 liver extract): 91.16 ± 0.87%
% Bound (mean ± SD) ([1]; λ1 AL07 liver extract): 51.81 ± 0.25%
% Bound (mean ± SD) ([1]; λ2 AL02 liver extract): 92.95 ± 0.31%
% Bound (mean ± SD) ([1]; λ2 AL02 spleen extract): 96.76 ± 3.65%
% Bound (mean ± SD) ([1]; λ2 AL06 liver extract): 89.66 ± 0.91%
% Bound (mean ± SD) ([1]; λ2 AL06 spleen extract): 97.11 ± 0.05%
% Bound (mean ± SD) ([1]; λ2 AL09 liver extract): 84.99 ± 0.14%
% Bound (mean ± SD) ([1]; λ3 AL04 liver extract): 88.44 ± 0.25%
% Bound (mean ± SD) ([1]; λ3 AL04 spleen extract): 92.29 ± 0.30%
% Bound (mean ± SD) ([1]; λ4 AL05 spleen extract): 95.44 ± 0.03%
% bound [2]: 95.7%
125I-p5+14 retention in the spleen (AA amyloid; mice deemed amyloid-free by Congo red histochemical staining (cohort n = 34)): > 3 %ID/g
whole-body retention half-life (AA amyloid; mice with AA amyloidosis, iv ~3 µg 125I-p5+14, gamma counting up to 48 h pi, n = 3 per time point): > 48 h
non-specific binding [4]: ~ 10%
Substance: GGG[Tyr(3-I)]SKAQKAQAKQAKQAQKAQKAQAKQAKQAQKAQKAQAKQAKQ [125I-p5+14]
micro-autoradiographic distribution of radiolabeled peptide in tissues (AA amyloid; AA mice, 1 h pi, 6 µm tissue sections compared with Congo red): co-localized with amyloid in diseased tissues
overlay micro-autoradiography on human tissue sections [3]: co-localized with both AL and ATTR amyloid
